Measured values from ChEMBL document CHEMBL3588756, “Allobetulin derived seco-oleananedicarboxylates act as inhibitors of acetylcholinesterase” (Bioorg Med Chem Lett, 2015).

How the values were obtained:
[1] = target: T1, Acetylcholinesterase (Electrophorus electricus, UniProt O42275); assay: Competitive Inhibition of Electrophorus electricus acetylcholinesterase using acetylthiocholine iodide as substrate preincubated for 20 mins followed by substrate addition measured for 30 mins by Ellman's method
[2] = target: T1, Acetylcholinesterase; assay: Uncompetitive Inhibition of Electrophorus electricus acetylcholinesterase using acetylthiocholine iodide as substrate preincubated for 20 mins followed by substrate addition measured for 30 mins by Ellman's method
[3] = Cytotoxicity against mouse NIH/3T3 cells assessed as cell survival after 96 hrs by sulforhodamine-B assay; format: cell-based; conditions: NIH3T3, 96 h
[4] = Solubility of the compound in aqueous buffer; format: physicochemical
[5] = target: T1, Acetylcholinesterase; assay: Inhibition of Electrophorus electricus acetylcholinesterase using acetylthiocholine iodide as substrate preincubated for 20 mins followed by substrate addition measured for 30 mins by Ellman's method
[6] = target: Cholinesterase (Equus caballus, UniProt P81908); assay: Inhibition of equine serum butyrylcholinesterase using butyrylthiocholineidioide as substrate preincubated for 20 mins followed by substrate addition measured for 30 mins by Ellman's method
Chain of Cholinesterase (P81908 whole entry): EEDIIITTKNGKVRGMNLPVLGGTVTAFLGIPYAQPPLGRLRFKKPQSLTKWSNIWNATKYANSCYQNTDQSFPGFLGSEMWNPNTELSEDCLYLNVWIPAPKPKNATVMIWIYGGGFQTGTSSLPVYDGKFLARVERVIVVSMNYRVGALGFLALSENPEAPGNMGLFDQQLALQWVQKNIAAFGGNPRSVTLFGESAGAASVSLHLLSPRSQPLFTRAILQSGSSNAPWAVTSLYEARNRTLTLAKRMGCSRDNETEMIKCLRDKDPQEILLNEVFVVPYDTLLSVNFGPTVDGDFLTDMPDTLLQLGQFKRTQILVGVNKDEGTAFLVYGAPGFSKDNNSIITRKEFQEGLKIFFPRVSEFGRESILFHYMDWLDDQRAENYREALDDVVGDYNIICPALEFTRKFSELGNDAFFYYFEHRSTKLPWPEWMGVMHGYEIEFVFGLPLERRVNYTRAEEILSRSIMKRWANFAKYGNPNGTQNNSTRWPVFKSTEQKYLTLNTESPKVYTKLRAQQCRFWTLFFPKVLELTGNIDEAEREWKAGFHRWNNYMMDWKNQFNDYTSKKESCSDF

T1 sequence (O42275 whole entry): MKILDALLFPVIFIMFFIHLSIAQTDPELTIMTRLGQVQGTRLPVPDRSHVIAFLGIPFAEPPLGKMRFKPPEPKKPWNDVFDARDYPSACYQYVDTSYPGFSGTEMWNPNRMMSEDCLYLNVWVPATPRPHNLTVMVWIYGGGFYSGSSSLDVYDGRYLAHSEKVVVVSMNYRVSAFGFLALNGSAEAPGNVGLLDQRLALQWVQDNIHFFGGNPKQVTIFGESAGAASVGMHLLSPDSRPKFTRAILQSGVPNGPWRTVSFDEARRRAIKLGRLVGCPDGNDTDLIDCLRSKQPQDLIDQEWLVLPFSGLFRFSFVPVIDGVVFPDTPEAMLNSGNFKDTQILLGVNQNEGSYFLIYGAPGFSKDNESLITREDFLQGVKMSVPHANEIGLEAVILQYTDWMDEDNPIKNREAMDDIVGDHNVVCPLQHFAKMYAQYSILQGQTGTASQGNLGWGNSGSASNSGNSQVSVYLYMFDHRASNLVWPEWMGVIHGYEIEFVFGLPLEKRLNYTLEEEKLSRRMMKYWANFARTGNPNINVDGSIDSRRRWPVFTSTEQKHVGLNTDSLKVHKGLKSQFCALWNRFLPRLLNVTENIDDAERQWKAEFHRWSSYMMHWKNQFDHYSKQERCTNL

SMILES | Ki [1] [µM] | Ki [2] [µM] | EC50 [3] [µM] | further results
C#CCOC(=O)C[C@]1(C)[C@H]2CC[C@@H]3[C@H]4[C@H]5OC[C@@]4(CCC5(C)C)CC[C@@]3(C)[C@]2(C)CC[C@H]1C(C)(C)C(=O)OCC#C | 10.5 | 4.63 | 7 | –
C#CCOC(=O)CC[C@]1(C)[C@H]2CC[C@@H]3[C@H]4[C@H]5OC[C@@]4(CCC5(C)C)CC[C@@]3(C)[C@]2(C)CC[C@H]1C(=C)C | 3.33 | 2.48 | > 30 | –
C=CCCOC(=O)CC[C@]1(C)[C@H]2CC[C@@H]3[C@H]4[C@H]5OC[C@@]4(CCC5(C)C)CC[C@@]3(C)[C@]2(C)CC[C@H]1C(=C)C | – | – | – | solubility [4]: Insoluble
C=C(C)[C@@H]1CC[C@]2(C)[C@H](CC[C@@H]3[C@H]4[C@H]5OC[C@@]4(CCC5(C)C)CC[C@]32C)[C@@]1(C)CCC(=O)O | – | – | > 30 | Ki [5]: 31.8 µM
N[C@@H](CO)C(=O)O [SERINE] | – | – | – | IC50 [5]: 0.015 µM; IC50 [6]: 0.016 µM
C=CCCOC(=O)C[C@]1(C)[C@H]2CC[C@@H]3[C@H]4[C@H]5OC[C@@]4(CCC5(C)C)CC[C@@]3(C)[C@]2(C)CC[C@H]1C(C)(C)C(=O)OCCC=C | – | – | > 30 | –
